{"source": "patent US20130014428A1", "about": "“METHODS OF MONITORING AND CONTROLLING THE WALNUT TWIG BEETLE, PITYOPHTHORUS JUGLANDIS” (The United States of America as Represented by the …, priority 2011, published 2013)", "format_in_all_cases": "in vivo, Pityophthorus juglandis", "key": {"[1]": {"system": "WTB", "test": "Example 2 Field Test 1: X in combination with X-3 and X-2", "settings": "4-unit Lindgren funnel traps", "procedure": "Field Bioassays of 3-methyl-2-buten-1-ol in combination with other compounds. The flight response of WTB to 3-methyl-2-buten-1-ol in combination with other compounds was also tested. […] Louis, Mo. […] The five treatments were replicated in three spatial blocks and the treatments were re-randomized among the five trap stations in a block each time the traps were emptied (nearly every day). [table] Statistical Analyses. Analysis of treatment effects for the pouch vs. bottle experiment was done by using a sign test. (See Zar, J. H. 2010. Biostatistical Analysis. 5th ed. Pearson Prentice Hall, Englewood Cliffs, N.J.) The other four experiments were analyzed for treatment effect by using Friedman's non-parametric analysis of variance. Id. In all experiments, males and females were analyzed separately. All treatments within experiments yielding a significant treatment effect were compared by using an a posteriori Nemenyi test with experimentwise α=0.05. Id. For all experiments, differences among proportions of female WTB responding to treatments were analyzed by comparing 95% confidence intervals determined with the Clopper-Pearson method. Id."}, "[2]": {"system": "WTB", "test": "Trap type: clear sticky panel vs 4-unit Lindgren funnel traps baited with X", "settings": "for trap catches, female WTB / trap catches, male WTB: 5 mg/d, 15 ml load", "procedure": "In another set of experiments, the response of WTB to clear sticky panel traps and 4-unit Lindgren funnel traps was tested. Both were baited with 3-methyl-2-buten-1-ol (5 mg/d, 15 ml load). The clear plexiglass panel traps were coated with Stikem Special (Seabright Labs, Emeryville, Calif.). The experiment was conducted in late spring in a native riparian stand of J. hindsii at Shadow Cliffs Regional Park, Alameda Co., Calif. The pairs of traps were hung at a height of 3 m in the crowns of J. hindsii and arranged in six spatial blocks. Treatments were re-randomized among the trap stations each time that the traps were emptied (approx. weekly, after periodic WTB flights). Trap catches of males and females were normalized by the available trapping surface area for each trap type.\n(§1) Statistical Analyses. Analyses of treatment effects for the tests of trap type were performed by using Friedman's non-parametric analysis of variance or a sign test, depending on the number of treatments. (See Zar, J. H. 2010. Biostatistical Analysis. 5th ed. Pearson Prentice Hall, Englewood Cliffs, N.J.) Analysis of treatment effects for the Rain•X experiment was performed by using a Wilcoxon paired sample test. Id. Multiple comparisons for experiments with more than two treatments were performed with an a posteriori Nemenyi test with experimentwise α=0.05. Id. In all cases, male and female WTB were analyzed separately. Proportions of female WTB responding to treatments were calculated and 95% confidence intervals determined by using the Clopper-Pearson method. Id."}, "[3]": {"system": "WTB", "test": "Trap type: four Lindgren funnel traps and intercept panel trap baited with X", "settings": "for trap catches, female WTB / trap catches, male WTB: 15-80 mg/d", "procedure": "In another set of experiments, the flight response of WTB to four types of Lindgren funnel traps (Contech) and an intercept panel trap (Alpha Scents Inc., Portland Oreg., product # AST0031) was tested at Wolfskill Experimental Orchards in mid-summer. Each trap was baited with the commercial formulation of 3-methyl-2-buten-1-ol (15-80 mg/d, Contech) hung inside the middle funnel of each funnel trap or in a recess in the middle of the cross vane panels of the panel trap. Each trap cup was filled with propylene glycol as described above and the traps were suspended from the top of a 3 m metal conduit pole. Three blocks of traps were installed and trap catches were collected daily when the flight activity was high. The five treatments were re-randomized among the five trap stations within each of the three blocks each time that the traps were emptied.\nas §1"}, "[4]": {"system": "WTB", "test": "Trap height: clear plexiglass panel traps baited with X", "settings": "5 mg/d, 15 ml load", "procedure": "Effect of Trap Height on Trap Catch. The flight response of WTB to clear plexiglass panel traps coated with Stikem Special (Seabright Labs, Emeryville, Calif.) and baited with 3-methyl-2-buten-1-ol (5 mg/d, 15 ml load, polyethylene bottle) located at three heights (2, 3, and 4 m above the forest floor) was tested. The traps were placed in the crowns of J. hindsii located in a native riparian stand at Shadow Cliffs Regional Park, Alameda Co., Calif. from early to mid-spring. Both sides of a single 23 cm×14 cm sheet of clear plexiglass were covered with Stikem Special adhesive and the sheet was hung from string at each of the 3 heights from a single J. hindsii branch. The aggregation pheromone bait was hung immediately above each trap. Each group of three traps was assigned a unique position within the stand and treated as a block in a completely randomized block design (N=22). Traps within a block were all collected on the same day; blocks were collected after 2 to 7 days (after periodic flights of WTB).\nas §1"}, "[5]": {"settings": "X 15-60 mg/d, X-3 and X-2 1.76 mg/d, N=42"}}}
{"compound": "CC(C)=CCO", "note": "[X, 3-methyl-2-buten-1-ol]", "values": [{"measurement": "proportion of females responding", "setting": "[1]", "value": 0.77}, {"measurement": "trap catches, female WTB", "setting": "[1]; [5]", "value": 636}, {"measurement": "trap catches, male WTB", "setting": "[1]; [5]", "value": 193}, {"measurement": "trap catches, female WTB", "setting": "[2]; 4-unit Lindgren funnel traps", "value": 160}, {"measurement": "trap catches, male WTB", "setting": "[2]; 4-unit Lindgren funnel traps", "value": 110}, {"measurement": "trap catches, female WTB", "setting": "[2]; clear sticky panel traps", "value": 449}, {"measurement": "trap catches, male WTB", "setting": "[2]; clear sticky panel traps", "value": 216}, {"measurement": "proportion of females responding", "setting": "[2]; funnel traps", "value": 0.59}, {"measurement": "proportion of females responding", "setting": "[2]; sticky traps", "value": 0.67}, {"measurement": "trap catches, female WTB", "setting": "[3]; 4-unit Lindgren funnel trap", "value": 231}, {"measurement": "trap catches, male WTB", "setting": "[3]; 4-unit Lindgren funnel trap", "value": 72}, {"measurement": "proportion of females responding", "setting": "[3]; 4-unit trap", "value": 0.76}, {"measurement": "proportion of females responding", "setting": "[3]; 8-unit trap", "value": 0.76}, {"measurement": "trap catches, female WTB", "setting": "[3]; 8-unit trap", "value": 634}, {"measurement": "trap catches, male WTB", "setting": "[3]; 8-unit trap", "value": 202}, {"measurement": "proportion of females responding", "setting": "[3]; 12-unit trap", "value": 0.72}, {"measurement": "trap catches, female WTB", "setting": "[3]; 12-unit trap", "value": 892}, {"measurement": "trap catches, male WTB", "setting": "[3]; 12-unit trap", "value": 352}, {"measurement": "proportion of females responding", "setting": "[3]; 16-unit trap", "value": 0.73}, {"measurement": "trap catches, female WTB", "setting": "[3]; 16-unit trap", "value": 618}, {"measurement": "trap catches, male WTB", "setting": "[3]; 16-unit trap", "value": 233}, {"measurement": "trap catches, female WTB", "setting": "[3]; intercept panel trap", "value": 296}, {"measurement": "trap catches, male WTB", "setting": "[3]; intercept panel trap", "value": 128}, {"measurement": "proportion of females responding", "setting": "[3]; panel trap", "value": 0.70}, {"measurement": "proportion of females responding", "setting": "[4]; clear plexiglass panel trap at 2 m", "value": 0.68}, {"measurement": "proportion of females responding", "setting": "[4]; clear plexiglass panel trap at 3 m", "value": 0.64}, {"measurement": "proportion of females responding", "setting": "[4]; clear plexiglass panel trap at 4 m", "value": 0.72}]}
